Data on eleven molecules can be found in patent publication EP0321274A1, “Derivatives of thioformamide” (RHONE POULENC RORER LIMITED, priority 1987, dated 1989).

The test system of one experiment is isolated rat aorta. Kind of experiment: Test A: activity against contractions induced by low K⁺ concentrations (20 mM K⁺) in the isolated rat aorta. The experiment is classed as cell-based. As to conditions: concentration reducing the 20 mM K⁺-induced contraction by 90%; rat thoracic aorta strips denuded of endothelium; read-out: Activity Test A EC₉₀. The procedure: The test methods used were adapted from those described by Winslow et al [Eur.J.Pharmacol., 131, 219-228 (1986)] and Karaki [J.Pharmacol. Methods, 18, 1-21 (1987)] for differentiating vaso-relaxant activity.
Test A : Activity against contractions induced by low K⁺ concentrations in the isolated rat aorta
Thoracic aorta was removed from rats and transverse strips, denuded of endothelium, were suspended in a bath containing Krebs solution. The tension was recorded and a contraction induced by addition of 20 mM K⁺ (potassium ion) to the bathing solution. The test compound was added to the bath as a solution in increasing cumulative concentration. The concentration in the bathing solution of the test compound which reduced the K⁺-induced contraction by 90% was determined and expressed in µM as the effective concentration (EC₉₀), given in Table I.

For experiment [1], the system named is histamine-induced bronchospasm. Kind of experiment: Histamine-induced bronchospasm in the anaesthetised guinea pig (method of Dixon and Brodie), nebulised aerosol. The experiment is classed as in vivo. As to conditions: nebulised aerosol for 1 minute, control 80. The procedure: (§1) In in vivo tests in the anaesthetised guinea pig, performed according to the method of Dixon W.E. and Brodie T.G., J. Physiol 29, pp 97-173 (1903), Compound BD affected histamine-induced bronchospasm and blood pressure as follows:-
(§2) A nebulised aerosol generated from an aqueous solution having a given concentration was administered for 1 minute to the anaesthetised guinea pigs.

Another experiment has as its system blood pressure. Kind of experiment: Blood pressure in the anaesthetised guinea pig (same experiment as bronchospasm test). It counts as in vivo. To be noted: nebulised aerosol for 1 minute, control 42. The procedure: as §1, §2

For `CNC(=S)C1(c2cccnc2)CCCCC1=O` (racemic) [Compound A, (±)-N-methyl-2-oxo-1-(3-pyridyl)cyclohexanecarbothioamide], the EC90 with isolated rat aorta came to 800 nM.
Same read-out and setting: the value for `CNC(=S)C1(c2cnc3ccccc3c2)CCCCC1=O` (racemic) [Compound B, (±)-N-methyl-2-oxo-1-(3-quinolinyl)cyclohexanecarbothioamide] was 70 nM.
On to `CNC(=S)C1(c2cccnc2)CCC/C1=N\OCc1ccc(F)cc1` (racemic) [Compound BD, (±)-anti-N-methyl-2-(4-fluorobenzyloxyimino)-1-(3-pyridyl)cyclopentanecarbothioamide], for which the entries for the “% maximum bronchospasm” value in experiment [1] (100µg/ml aqueous solution), in experiment [1] (300µg/ml aqueous solution) and in experiment [1] (1000µg/ml aqueous solution) were 76%, 46% and 22%, respectively. The B.P. with blood pressure (100µg/ml aqueous solution) turned out to be 49 mmHg; in the experiment with blood pressure (300µg/ml aqueous solution) it was 43 mmHg; in the experiment on blood pressure (1000µg/ml aqueous solution) it was 40 mmHg.
For `CNC(=S)C1(c2cccnc2)CCCC/C1=N\OC` (racemic) [Compound G, (±)-anti-N-methyl-2-methoxyimino-1-(3-pyridyl)cyclohexanecarbothioamide], the EC90 in the experiment on isolated rat aorta was 300 nM.
Take `CNC(=S)C1(c2cccnc2)CCCC/C1=N\OCc1ccccc1` (racemic) [Compound H, (±)-anti-N-methyl-2-benzyloxyimino-1-(3-pyridyl)cyclohexanecarbothioamide]: the EC90 in the experiment with isolated rat aorta was found to be 10 nM.
On the same count and under the same terms, the result for `CNC(=S)C1(c2ccc(Cl)nc2)CCCCC1=O` (racemic) [Compound R, (±)-N-methyl-2-oxo-1-(6-chloropyrid-3-yl)cyclohexanecarbothioamide] reads 240 nM.
On to `CNC(=S)C1(c2cncc(Br)c2)CCCCC1=O` (racemic) [Compound S, (±)-N-methyl-2-oxo-1-(5-bromopyrid-3-yl)cyclohexanecarbothioamide], for which, in the experiment on isolated rat aorta, the EC90 amounted to 400 nM.
With `CCNC(=S)C1(c2cccnc2)CCCCC1=O` (racemic) [T, (±)-N-ethyl-2-oxo-1-(3-pyridyl)cyclohexanecarbothioamide], in the experiment on isolated rat aorta, the EC90 came out at 300 nM.
With `CNC(=S)[C@]1(c2cnc3ccccc3c2)CCCC/C1=N\N1CCC[C@H]1COC` [Compound J, (2S)-anti-2-(methoxymethyl)-1-[2′-(3-quinolinyl)-2′-methylthiocarbamoylcyclohexylideneamino]pyrrolidine], in the experiment with isolated rat aorta, the EC90 was determined as 300 nM.
On the same count and under the same terms, the value for “(±)-cis-N-methyl-2-hydroxy-1-(3-pyridyl)cyclohexanecarbothioamide” was 24000 nM; that for “(±)-trans-N-methyl-2-hydroxy-1-(3-pyridyl)cyclohexanecarbothioamide” was 7500 nM.
